Measured values as given in ChEMBL document CHEMBL5584358, “Fungal Coculture of Herpotrichia sp. and Trametes versicolor Induces Production of Diverse Metabolites with Anti-Parkinson's Neuroprotective Activity” (J Nat Prod, 2024).
Calls of active or inactive are those of the source. No cut-off for these calls is given here.

Assays:
[1] = system: PC-12; assay: Cytotoxicity against rat PC12 cells assessed as effect on cell viability at 20 uM measured after 24 hrs by CCK-8 assay; type: toxicity, cell-based; details: pc-12, 24 h
[2] = system: PC-12; assay: Neuroprotective activity against MPP+-induced rat PC12 cell death assessed as increase in cell viability preincubated for 1 hr followed by MPP+ addition and measured after 24 hrs by CCK-8 assay; type: functional, cell-based; details: dose 1-20 µM, time 25.0 hrs
[3] = system: PC-12; assay: Neuroprotective activity against MPP+-induced rat PC12 cell death assessed as cell viability at 20 uM preincubated for 1 hr followed by MPP+ addition and measured after 24 hrs by CCK-8 assay (reference value: 57%); type: functional; details: time 25 hrs, read-out: Activity
[4] = system: PC-12; assay: Neuroprotective activity against MPP+-induced rat PC12 cell death assessed as increase in cell viability at […] preincubated for 1 hr followed by MPP+ addition and measured after 24 hrs by CCK-8 assay; type: functional, cell-based; details: time 25.0 hrs

SMILES: CC/C=C/c1c(OC)cc(=O)oc1CO
- Activity [1]: Non-Toxic

SMILES: CC(=O)[C@H]1CC[C@@]2(O)C3=CC(=O)[C@@H]4C[C@H](O)CC[C@]4(C)[C@H]3C[C@@H](O)[C@]12C
- Activity [1]: Non-Toxic
- Activity [2]: Dose-Dependent Effect
- viability at 20 µM [3]: 72%

SMILES: C=CC(C)(O)C(O)CC(O)C(C)(O)CCC=C(C)C (centres undefined)
- Activity [1]: Non-Toxic

SMILES: C=C1CC[C@@H](C(C)(C)O)[C@@H]2C[C@H](C)[C@@H](O)C[C@@H]12
- Activity [1]: Non-Toxic
- Activity [2]: Dose-Dependent Effect
- viability at 20 µM [3]: 72%

SMILES: COc1cc(=O)oc(C)c1/C=C/CCOC(C)=O
- Activity [1]: Non-Toxic

SMILES: CC(=O)[C@H]1CC[C@H]2C3=C[C@H](O)[C@H]4C[C@H](O)CC[C@]4(C)[C@H]3[C@H](O)C[C@]12C
- Activity [1]: Non-Toxic
- Activity [2]: Dose-Dependent Effect
- viability at 20 µM [3]: 68%

SMILES: CC(C)=CC[C@H](O)[C@@](C)(O)[C@@H](O)C/C=C(/C)[C@H](O)CO
- Activity [1]: Non-Toxic

SMILES: CCC[C@H](O)c1c(OC)cc(=O)oc1C
- Activity [1]: Non-Toxic

SMILES: C=C1CC[C@H]2[C@](C)(CO)CC[C@@H](O)[C@]2(C)[C@H]1CO
- Activity [1]: Non-Toxic

SMILES: C=CC1(C)CC/C=C(/C)CCC(C(C)(C)O)O1 (centres undefined) [NEROPLOMACROL]
- Activity [1]: Non-Toxic
- Activity [2]: Dose-Dependent Effect
- viability at 20 µM [3]: 69%

SMILES: CC(=O)[C@H]1CC[C@H]2C3=CC(=O)[C@H]4C[C@H](O)CC[C@]4(C)[C@H]3[C@H](O)C[C@]12C
- Activity [1]: Non-Toxic
- Activity [2]: Dose-Dependent Effect
- viability at 20 µM [3]: 69%

SMILES: CC(CO)[C@@H]1CC[C@@](C)(O)[C@@H]2CCC(CO)=C[C@H]21 (some centres undefined)
- Activity [1]: Non-Toxic
- Activity [4]: Active
- Activity [2]: Dose-Dependent Effect
- viability at 20 µM [3]: 69%

SMILES: CC1=C[C@](C)(O)[C@H](C)O[C@H]1/C(C)=C/C=C/C=C/C=C/[C@@]1(C)C2OC(=O)C1(C)C(=O)C2C (some centres undefined)
- Activity [1]: Non-Toxic

SMILES: CCC[C@H](O[C@@H]1OC[C@@H](O)[C@H](O)[C@H]1O)c1c(OC)cc(=O)oc1C
- Activity [1]: Non-Toxic

SMILES: CC1=C[C@@](C)(O)[C@H](C)O[C@H]1/C(C)=C/C=C/C=C/C=C/[C@@]1(C)C2OC(=O)C1(C)C(=O)C2C (some centres undefined)
- Activity [1]: Non-Toxic

SMILES: Cc1ccc([C@@H](C)[C@@H](C[C@@H](O)C(C)(C)O)O[C@@H]2OC[C@@H](O)[C@H](O)[C@H]2O)cc1
- Activity [1]: Non-Toxic
